The text below walks through data of patent publication US12133856B2, “Multi-substituent psilocybin derivatives and methods of using” (Enveric Biosciences Canada Inc., priority 2021, dated 2024).

Where two headings read alike, the source gives them in different places.

The target in assay [1] is T1, 5-HT2A (Homo sapiens, UniProt P28223). Nature of the assay: Radioligand competition binding assay with [3H]ketanserin (scintillation proximity assay) on membranes containing 5-HT2A. The arrangement: purchased PerkinElmer ES-313-M400UA. Conditions: for competition binding curve result at 5-HT2A receptor (binding / no binding): controls, FIG. 15C. Here is the method: Ki values were calculated from the competition displacement data using the competitive binding analysis from GraphPad PRISM software.
T1 sequence (P28223 whole entry): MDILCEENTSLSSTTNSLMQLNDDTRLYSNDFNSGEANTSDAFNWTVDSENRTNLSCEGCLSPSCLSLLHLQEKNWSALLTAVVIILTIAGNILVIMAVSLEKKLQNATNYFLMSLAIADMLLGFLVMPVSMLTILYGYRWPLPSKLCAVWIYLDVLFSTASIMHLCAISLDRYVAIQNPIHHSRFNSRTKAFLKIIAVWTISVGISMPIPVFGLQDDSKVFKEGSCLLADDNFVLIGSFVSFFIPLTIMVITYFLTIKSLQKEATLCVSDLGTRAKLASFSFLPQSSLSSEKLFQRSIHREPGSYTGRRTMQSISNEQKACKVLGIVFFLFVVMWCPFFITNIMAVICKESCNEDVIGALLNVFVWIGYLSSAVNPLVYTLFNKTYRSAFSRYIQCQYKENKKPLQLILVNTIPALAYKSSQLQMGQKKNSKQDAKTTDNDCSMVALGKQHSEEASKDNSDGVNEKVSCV
Background: Displacement assays read how much labelled ligand stays bound in the presence of the test substance.

A further assay deals with T2, 5-HT1A receptor (Homo sapiens, UniProt P08908).
T2 construct: host or cells: CHO-K1 (co-expressing Gα15)
T2 sequence (P08908 1-422): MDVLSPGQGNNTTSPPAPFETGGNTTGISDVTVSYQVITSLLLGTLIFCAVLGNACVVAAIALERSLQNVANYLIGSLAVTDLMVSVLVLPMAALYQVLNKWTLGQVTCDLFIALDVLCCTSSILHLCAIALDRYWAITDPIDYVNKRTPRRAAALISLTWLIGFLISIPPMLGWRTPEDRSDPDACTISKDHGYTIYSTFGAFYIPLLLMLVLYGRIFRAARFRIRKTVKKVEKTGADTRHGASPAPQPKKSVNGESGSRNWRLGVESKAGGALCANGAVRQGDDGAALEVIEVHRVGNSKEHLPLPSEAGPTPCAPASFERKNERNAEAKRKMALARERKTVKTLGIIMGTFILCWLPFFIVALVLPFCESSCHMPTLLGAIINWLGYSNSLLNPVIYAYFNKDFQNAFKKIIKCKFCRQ
Nature of the assay: cAMP-Glo assay of 5-HT1A receptor modulation with 4 μM forskolin in CHO-K1/5-HT1A/Gα15 (+5-HT1A) versus CHO-K1/Gα15 (−5-HT1A) cells. Format: cell-based. Conditions: fixed 4 μM forskolin; cAMP relative (%) to ligand-free samples; decrease = 5-HT1A activity, no difference = no modulation. The text has this:
CHO-K1/Gα15 (GenScript, M00257) (−5-HT1A) and CHO-K1/5-HT1A/Gα15 (GenScript, M00330) (+5-HT1A) cells lines were used. Briefly, CHO-K1/Gα15 is a control cell line that constitutively expresses Gα15 which is a promiscuous Gq protein. This control cell line lacks any transgene encoding 5-HT1A receptors, but still responds to forskolin; thus, cAMP response to forskolin should be the same regardless of whether or not 5-HT1A agonists are present. Conversely, CHO-K1/5-HT1A/Gα15 cells stably express 5-HT1A receptor in the CHO-K1 host background. […] In +5-HT1A cells, Gα15 may be recruited in place of Gαi/o, which could theoretically dampen cAMP response (Rojas and Fiedler 2016, Front Cell Neurosci 10: 272). […] In contrast, tryptophan is not known to activate, or modulate in any way, 5-HT1A receptors, and was thus used as a negative control. Cells were maintained in complete growth media as recommended by supplier (GenScript) which is constituted as follows: Ham's F12 Nutrient mix (HAM's F12, GIBCO #11765-047) with 10% fetal bovine serum (FBS) (Thermo Scientific #12483020), 200 μg/ml zeocin (Thermo Scientific #R25005) and/or 100 μg/ml hygromycin (Thermo Scientific #10687010). The cells were cultured in a humidified incubator with 37° C. and 5% CO2. Cells maintenance was carried out as recommended by the cell supplier. Briefly, vials with cells were removed from the liquid nitrogen and thawed quickly in 37° C. water bath. Just before the cells were completely thawed the vial's outside was decontaminated by 70% ethanol spray. The cell suspension was then retrieved from the vial and added to warm (37° C.) complete growth media, and centrifuged at 1,000 rpm for 5 minutes. The supernatant was discarded, and the cell pellet was then resuspended in another 10 ml of complete growth media, and added to the 10 cm cell culture dish (Greiner Bio-One #664160). The media was changed every third day until the cells were about 90% confluent. The ˜90% confluent cells were then split 10:1 for maintenance or used for experiment.
As 5-HT1A activation inhibits cAMP formation, the ability of test molecules to modulate 5-HT1A response was measured via changes in the levels of cAMP produced due to application of 4 μM forskolin. […] Briefly, +5-HT1A cells were seeded on 1-6 columns and base −5-HT1A cells were seeded on columns 7-12 of the white walled clear bottom 96-well plate (Corning, #3903). Both cells were seeded at the density of 30,000 cells/well in 100 μl complete growth media and cultured 24 hrs in humidified incubator at 37° C. and 5% CO2. On the experiment day, the media of cells was replaced with serum/antibiotic free culture media. […] Forskolin induced cAMP formation whereas IBMX and RO 20-1724 inhibited the degradation of cAMP. PKA was added to the lysate, mixed, and subsequently the substrate of the PKA was added. PKA was activated by cAMP, and the amount of ATP consumed due to PKA phosphorylation directly corresponded to cAMP levels in the lysate.

For assay [2], the target named is T1, 5-HT2A. Conditions: cited from earlier work.

As for `CC(=O)NCCc1c[nH]c2cc(F)cc(N)c12` [(IX)], at 5-HT2A [1] (fixed 1 nM [3H]ketanserin, test compound 3 nM to 1 mM, FIG. 15D), the “specific binding in competition with [3H]ketanserin for 5-HT2A sites (competition not complete)” value is reported as around 50%. In addition, the “% cAMP in +5HT1A compared to −5HT1A cultures as dosages increase” value (shortened to “% cAMP in +5HT1A … as dosages increase”) on 5-HT1A receptor is “no significant difference”.
For `CC(=O)NCCc1c[nH]c2cc(NC(C)=O)cc(F)c12` [(X)], at 5-HT2A [1] ([3H]ketanserin competition, FIG. 16B, indicates comparatively 'loose' binding), the “Ki value at 5-HT2A compared with that of psilocin (in words)” value is “relatively high”. Also, the “% cAMP in +5HT1A … as dosages increase” value at 5-HT1A receptor is on record as “no significant difference”.
For `CNC(C)Cc1ccc2c(c1)OCO2` (centres unmarked) [MDMA], the “Ki values for 5-HT2A (in words)” value on 5-HT2A [2] was “micromolar range”.
In the case of `COc1cc(CCN)cc(OC)c1OC` [mescaline], the “Ki values for 5-HT2A (in words)” value at 5-HT2A [2] (literature values signifying mild or 'loose' binding profiles) is reported as “micromolar range”.
As for `CN(C)CCc1c[nH]c2cccc(O)c12` [psilocin], the “competition binding curve result at 5-HT2A receptor (binding / no binding)” value on 5-HT2A [1] (fixed 1 nM [3H]ketanserin) is given as “binding”. The “% cAMP in +5HT1A … as dosages increase” value on 5-HT1A receptor is on record as “decreased % cAMP”.
Regarding `NCCc1c[nH]c2ccc(O)cc12` [serotonin], at 5-HT1A receptor, the “% cAMP in +5HT1A … as dosages increase” value is “decreased % cAMP”.
In the case of `N[C@@H](Cc1c[nH]c2ccccc12)C(=O)O` [tryptophan], the “competition binding curve result at 5-HT2A receptor (binding / no binding)” value on 5-HT2A [1] (fixed 1 nM [3H]ketanserin) was “no binding”. The “% cAMP in +5HT1A … as dosages increase” value on 5-HT1A receptor was “no significant difference”.
